Assay results reported in PubChem BioAssay (NCI).
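Each compound was tested at five concentrations against cells in 96-well plates for 48 hours. GI50: concentration for 50% inhibition of growth. TGI marks complete inhibition of growth.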

What was measured:
Assay in all cases: inhibition of tumour cell growth, NCI panel, 48 h
[1] = tested on: KM12 colon
[2] = tested on: SK-MEL-5 melanoma
[3] = tested on: HL-60(TB) leukemia
[4] = tested on: 786-0 renal
[5] = tested on: SF-295 CNS

Row | Compound | TGI [1] [µM] | TGI [2] [µM] | TGI [3] [µM] | TGI [4] [µM] | TGI [5] [µM] | GI50 [1] [µM] | GI50 [2] [µM]
1 | COc1cc(/C=C2\CCC(C)c3c2nc(N)c(C#N)c3-c2cc(OC)c(OC)c(OC)c2)cc(OC)c1OC (configuration not stated) | > 100 | > 100 | > 100 | > 100 |  |  | 
2 | COc1c(C(CC(C)C)OC(C)=O)ccc2c1C(=O)OCc1cc(C)cc(O)c1O2 (configuration not stated) | 35.4 | 23.2 | > 100 | 29.2 | 27.8 |  | 
3 | c1ccc2c(c1)n1c(N3CCOCC3)[n+]3ccccc3c1c1c3cccc[n+]3c(N3CCOCC3)n21 | > 100 | > 100 | > 100 | > 100 | > 100 |  | 
4 | CCOC(=O)Cc1nc2nn(Cc3ccccc3)cc2c(=O)[nH]1 | > 100 | > 100 | > 100 | > 100 | > 100 |  | 
5 | CSC1=N/C(=C\c2ccc(Cl)cc2)C(=O)N1CN1CCOCC1 | > 100 | > 100 |  | > 100 | > 100 |  | 
6 | CC(C)[Si](OCC/C=C/C1CCC(=O)C1C(O)C1CCCCC1)(C(C)C)C(C)C (configuration not stated) | 30 | 29 |  | 29.3 | 31.8 |  | 
7 | CN(C)Cc1cc(C(=O)/C=C/c2c(Cl)cccc2Cl)cc(CN(C)C)c1O | 7.2 | 13.9 | 11.7 | 16.2 | 23.1 |  | 
8 | CCCN(CCC)C(=S)N/N=C/c1cccc(C)n1 | 12.4 | 0.654 | 0.384 | 1.37 | 7.53 |  | 
9 | COc1ccccc1NC(=S)Nc1cccc(C)n1 | > 100 | > 100 | > 100 | > 100 | > 100 |  | 
10 | CCOC(=O)c1c(-c2ccc(Cl)cc2)c(C#N)c(=S)n(C2OC(CO)C(O)C(O)C2O)c1-c1ccccc1 (configuration not stated) | > 100 | 29.3 |  | 75.1 | 40.3 |  | 
11 | c1ccc2c(OCC3CO3)ccc(OCC3CO3)c2c1 (configuration not stated) | 16.1 | 19 | 2.4 | 5.57 | 14.1 |  | 
12 | COC(=O)CC1CN(C(=O)OCc2ccccc2)C(C)(C)O1 (configuration not stated) | > 100 | > 100 | > 100 | > 100 | > 100 |  | 
13 | CC1N(O)C(c2ccccc2)C(c2ccccc2)=[N+]1[O-] (configuration not stated) | > 100 | > 100 | > 100 | > 100 | > 100 |  | 
14 | COC(=O)C(Cc1ccccc1)C(=O)NC(CNC(=O)OCc1ccccc1)C(=O)OCc1ccccc1 (configuration not stated) | > 100 | 34 | > 67.9 | 62.7 | > 100 |  | 
15 | COC(=O)C1=C(C(=O)OC)C(C(=O)c2ccccc2)N2N=C(c3ccc(Cl)cc3)C=CC12 (configuration not stated) | > 100 | > 100 | > 100 | > 100 | > 100 |  | 
16 | OC1OC(c2ccc[nH]2)C(F)(F)C(F)(F)C1(F)F (configuration not stated) | > 100 | > 100 | > 100 | > 100 | > 100 |  | 
17 | CC(C(O)c1ccccc1)N(C)/N=N/c1nc2c([nH]1)c(=O)n(C)c(=O)n2C (configuration not stated) | > 100 | > 100 | > 100 | > 100 | > 100 |  | 
18 | CC1(C)C[C@H]2C3=CC[C@@H]4[C@@]5(C)CC[C@H](O)C(C)(C)[C@@H]5CC[C@@]4(C)[C@]3(C)C[C@@H](O)[C@@]23C[C@@H]1OC3=O | > 100 | > 100 | > 100 | > 100 | > 100 |  | 
19 | O=C(O)c1ccccc1C(=O)OCC1CCCN2CCCCC12 (configuration not stated) | > 100 | > 100 |  | > 100 | > 100 |  | 
20 | CC1=CC[C@@]2(C)[C@@H]([C@@H]1C)[C@H]1CC[C@@H]3[C@@]4(C)CC[C@H](O)C(C)(C)[C@@H]4CC[C@@]3(C)[C@]1(C)C[C@@H]2O | > 74.8 | > 62 | > 100 | 42.2 | 43.4 |  | 
21 | CC1=C(C#N)C(=O)N(/N=C/c2ccc(Cl)cc2)C(=O)/C1=c1\o/c(=C2/C(=O)N(/N=C/c3ccc(Cl)cc3)C(=O)C(C#N)=C2C)c2nccnc12 | > 100 | > 100 | > 100 | > 100 | > 100 |  | 

Row | Compound | TGI [1] [µM] | TGI [2] [µM] | TGI [3] [µM] | TGI [4] [µM] | TGI [5] [µM] | GI50 [1] [µM] | GI50 [2] [µM]
22 | Nc1ccccc1C(=O)NNC(=O)c1ccccc1N | > 100 | > 100 | > 100 | > 100 | > 100 |  | 
23 | Clc1cccc(Cl)c1C1SCc2nc3cc4ccccc4cc3n21 (configuration not stated) | > 100 | > 100 |  | > 100 | > 100 |  | 
24 | Cc1ccc(-c2cnc(NC3OC(COC(=O)c4ccccc4)C(OC(=O)c4ccccc4)C(OC(=O)c4ccccc4)C3OC(=O)c3ccccc3)s2)cc1 (configuration not stated) |  | > 100 |  | > 100 | > 100 |  | 
25 | Cc1ccc2nc(CN3CCCCC3)cc(=O)n2c1 | > 100 |  | > 100 | > 100 | > 100 |  | 
26 | COC(=O)c1cccc(C)c1C1CN=NC12Cc1c(ccc(C)c1C)C2=O (configuration not stated) | > 100 | 17.7 | 37.1 | > 100 |  |  | 
27 | Cc1nc2c(n1CCCl)C(=O)c1ccccc1C2=O | > 100 |  | 83.8 | > 100 | 62.6 |  | 
28 | COc1c(C(=O)O)cccc1-c1cccc(C(=O)NCCN(CCNC(=O)c2cccc(-c3cccc(C(=O)O)c3OC)c2OC)CCNC(=O)c2cccc(-c3cccc(C(=O)O)c3OC)c2OC)c1OC | > 100 | 37.6 | 65.4 | > 100 | > 100 |  | 
29 | CCC1=NC(N/N=C/c2ccccc2O)=N/C1=C\c1ccccc1O | > 66.1 | > 100 | 10.6 | > 72.1 | > 100 |  | 
30 | CCN(CC)CCN1CCN=c2c3cc(OC)ccc3n3cnc4ccc1c2c43 | 2.45 | 3.27 | 1.2 | 1.72 | 2.32 |  | 
31 | COc1ccc(OC)c2c(=O)cc(-c3ccccc3)[nH]c12 | > 100 |  | > 100 | > 100 | > 100 |  | 
32 | C#CCOC(=O)C(N)CS (configuration not stated) | > 100 | > 100 | > 100 | > 100 | > 100 |  | 
33 | Cc1ccc(S(=O)(=O)Oc2coc(CO)cc2=O)cc1 | 18.7 | 33.7 | 12.5 | 23.4 | 31.3 |  | 
34 | CNC(=O)C(C)NC(=O)C(Cc1ccccc1)NC(=O)OC(C)(C)C (configuration not stated) | > 100 | > 100 | > 100 | > 100 | > 100 |  | 
35 | C=C(CO)[C@H]1CC/C(C)=C/CC/C(C)=C/C/C=C(\C)[C@H](O)C1 | 29.5 | 54.1 |  | 57.5 | > 100 |  | 
36 | O=c1[nH]c2nccn2c(Cl)c1Br | > 100 | 64.9 | 33.5 | > 100 | > 100 |  | 
37 | CCOC(=O)C(NC(=O)NCc1ccc(F)cc1)C(F)(F)F (configuration not stated) |  | > 100 | > 100 | > 100 |  |  | 
38 | O=C(/C=C/c1c(O)c2ccccc2[nH]c1=O)CC(=O)C(=O)Nc1cccc(O)c1 | > 100 | > 100 | > 100 | > 100 | > 100 |  | 
39 | Cn1c(=S)[nH]c2c(Cl)cc(Cl)cc2c1=O | > 100 | > 100 | 78.8 | > 100 | > 100 |  | 
40 | Cc1nn(-c2ccccc2)c2nc3c(c(C)nn3-c3ccccc3)c(-c3ccccc3Br)c12 | > 100 | > 100 |  | > 100 | > 100 |  | 
41 | CCCOc1ccc(/C=C/C2=[N+](CCO)CCO2)cc1 | > 100 | > 100 | > 100 | > 100 | > 100 |  | 
42 | CC1=C(C(=O)OC23CC4CC(CC(C4)C2)C3)C(c2ccccc2OC(F)F)C(C(=O)OC23CC4CC(CC(C4)C2)C3)=C(C)N1 (configuration not stated) | > 100 | > 100 | > 100 | > 100 | > 100 |  | 

Row | Compound | TGI [1] [µM] | TGI [2] [µM] | TGI [3] [µM] | TGI [4] [µM] | TGI [5] [µM] | GI50 [1] [µM] | GI50 [2] [µM]
43 | O=c1oc2ccccc2c(O)c1C(c1ccc2ccccc2c1)c1c(O)c2ccccc2oc1=O | 40 | 54.4 | 75.5 | 74.7 | > 100 |  | 
44 | CC(=O)CCC(=O)CC(O)(C(F)(F)F)C(F)(F)F | 31.1 | 33.2 | 38.1 | 30.2 | 27.1 |  | 
45 | Cc1cc(Cl)ccc1NC(=O)/C(CC(=O)CC(c1ccccc1)c1c(O)c2ccccc2oc1=O)=N\O (configuration not stated) | > 100 | > 100 | > 100 | > 100 | > 100 |  | 
46 | CCC/C(Cl)=N\OC(=O)Nc1ccc(Br)cc1 | 16.2 | 27.7 | 7.22 | 18.5 | 30.2 |  | 
47 | O=C(n1[nH]c(=O)n(-c2ccc([N+](=O)[O-])cc2)c1=O)C(Cl)(Cl)Cl | > 75 | > 75 | > 75 | > 75 | > 75 |  | 
48 | COCC1OCCN1C (configuration not stated) | > 100 | > 100 |  | > 100 | > 100 |  | 
49 | Cc1cc(C)n(C(=O)C(C)Sc2nnc(SC(C)C(=O)n3nc(C)cc3C)s2)n1 (configuration not stated) | > 100 | > 100 | > 100 | > 100 | > 100 |  | 
50 | C=C1[C@H](OCC(C)C)[C@@H](OCC(C)C)[C@@H](O)C(C)(C)/C=C/[C@H](C)C(=O)[C@@]2(O)C[C@H](C)[C@H](O)[C@@H]2[C@H]1OCC(C)C | > 7.5 | > 7.5 |  | > 7.5 | > 7.5 |  | 
51 | C/C(=C\c1csc(C)n1)[C@@H]1C[C@@H]2O[C@]2(C)CCC[C@H](C)[C@H](O)[C@@H](C)C(=O)C(C)(C)[C@@H](O)CC(=O)O1 (tested in a mixture with another compound) | > 0.44 | > 1 | 0.0278 | > 1 | 0.0369 |  | 
52 | CC(=O)/C(=C/N1C(=O)CC(=O)NC1=S)C(=O)Nc1ccccc1C | > 100 | > 100 | > 100 | 50.8 | > 100 |  | 
53 | NC(=O)CC1(O)C=CC(=O)C=C1 | > 100 | > 100 | > 100 | > 100 | > 100 |  | 
54 | CC(=O)NNc1nc(C)c(C(/C=C/c2ccccc2O)=N/NC(=O)c2ccncc2)s1 | > 100 | > 100 | > 100 | > 100 | > 100 |  | 
55 | CC(C)CC(=O)OC[n+]1cccc(-c2c(COC(=O)NC(C)C)c(COC(=O)NC(C)C)c3n2CCC3)c1 | > 100 | > 100 |  | 97.7 | > 100 |  | 
56 | CCOC(=O)C1C(C(C)C)C2(C#N)C(=N)OC1(C)C2(C#N)C#N (configuration not stated) | > 100 | > 100 | > 100 | > 100 | > 100 |  | 
57 | CO[C@H]1C[C@@H]2CC[C@@H](C)[C@@](O)(O2)C(=O)C(=O)N2CCCC[C@H]2C(=O)O[C@H]([C@H](C)C[C@@H]2CC[C@@H](OC(=O)C(C)(CO)CO)[C@H](OC)C2)CC(=O)[C@H](C)/C=C(\C)[C@@H](O)[C@@H](OC)C(=O)[C@H](C)C[C@H](C)/C=C/C=C/C=C/1C | > 100 | > 100 | 6.31 | > 100 | > 100 | 2.17 | 1.87
58 | NC(=Nc1ccc(Cl)c(Cl)c1)c1ccccc1N | > 100 | 54.7 | 52 | > 100 | > 100 |  | 
59 | O=S(=O)([N-]c1nc2ccccc2nc1-[n+]1ccccc1)c1ccccc1 | > 100 | > 100 | 72.6 | > 100 | > 100 |  | 
60 | O=c1c2cc([N+](=O)[O-])cnc2sn1-c1ccc(Oc2ccccc2)cc1 | > 100 | > 100 | > 100 | > 100 | > 100 |  | 
61 | COc1ccc2cc(CNCCCN3CCN(CCCNCc4ccc5cc(OC)ccc5c4)CC3)ccc2c1 | 2.14 | 3.05 | 0.594 | 2.88 | 3.34 |  | 
62 | CN=C1Nc2ccccc2C(=S)N2CSC[C@@H]12 | > 100 | > 100 |  | > 100 | > 100 |  | 
